Assay results reported in paper PMC10959927, “Platinum iodido drugs show potential anti-tumor activity, affecting cancer cell metabolism and inducing ROS and senescence in gastrointestinal cancer cells” (Communications Biology, 2024).
“And” between values parts separate entries of the source, which are not always exact repeats. Identical values can stand only once.

Experiments:
Assay type in all cases: cell-based, human
AGS cells [1] = test: SA-β-Gal histochemical staining; details: Fig. S4A
In short: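 AGS, MKN45 or PANC1 cells (5×10^4) were seeded in 24-well plates overnight before treatment. For flow cytometry, cells were PFA-fixed and stained with CellEvent Senescence Green probe (1:500), read at ex 488/em 530/30 nm. For histochemistry, cells were treated 3 h, then kept 24 h in fresh medium before SA-β-Gal staining.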

AGS cells [2] = test: Western blotting (p-p53, p-JNK, p-p38, p-ERK, p-CHK1/2, Mcl1, BID, BAX); details: for fold change p-ERK vs Tubulin / fold change p-JNK vs Tubulin / fold change p-p38 vs Tubulin / fold change p-p53 vs Tubulin: Fig. 4A, replicate values; for fold change BAX vs Tubulin / fold change MCL1 vs Tubulin / fold change BID full length vs Tubulin: Fig. S3B
Description: (§1) Total protein extracts were obtained by adding the lysis buffer: 25 mM HEPES pH 7.5, 0.3 M NaCl, 1.5 mM MgCl2, 0.2 mM EDTA, 0.5 mM DTT, 20 mM β-glicerophosphate, 0.1 mM Na3VO4, 0.1% triton X-100; in the presence of protease inhibitors. Twenty μg of protein per sample were loaded and resolved using 8%, 10% or 15% SDS-PAGE polyacrylamide gels, and then transferred onto PVDF membranes, followed by immunodetection using appropriate antibodies, purchased from Santa Cruz Technology: Mcl-1 (sc-819), Cell Signaling Technology: BIM, BID, BAX (#9942), p-p38 (1:2000, #4631), p-p53^ser15 (#9284), p-ERK1/2 (1:2000, #9106), p-CHK1^ser345 and p-CHK2^ser19 (#9931), Promega Corporation-Spain: p-JNK (#V7932), or Sigma-Aldrich: α-tubulin (1:10000, #TP026). Unless indicated, all antibodies were diluted 1:1000. Secondary antibodies conjugated with horseradish peroxidase were purchased from BioRad, and chemiluminescence detection was performed using ECL (Santa Cruz Biotechnology).

PANC1 cells = test: as above; details: for fold change p-ERK vs Tubulin / fold change p-JNK vs Tubulin / fold change p-p38 vs Tubulin / fold change p-p53 vs Tubulin: PANC1, Fig. 4A, replicate values
Description: as §1

## [NH2][Pt]([NH2])([Cl])[Cl] [CDDP, cisplatin, reference compound]
AGS cells [1]
  Fold change % Senescence: 58.33% and 50% and 67.21%
AGS cells [2]; IC50, 1, 3, 6 or 24 h
  phosphorylation of CHK1/2 (DDR pathway, western blot): induced the phosphorylation
AGS cells [2]; Time 1 h
  fold change p-ERK vs Tubulin: 0.9528 fold change and 0.9782 fold change and 0.8139 fold change
  fold change p-JNK vs Tubulin: 0.895 fold change and 1.558 fold change and 0.8178 fold change
  fold change p-p38 vs Tubulin: 1.508 fold change and 0.8638 fold change and 1.487 fold change
  fold change p-p53 vs Tubulin: 0.9865 fold change and 0.9436 fold change and 1.458 fold change
AGS cells [2]; Time 3 h
  fold change p-ERK vs Tubulin: 1.409 fold change and 0.9423 fold change and 1.158 fold change
  fold change p-JNK vs Tubulin: 1.014 fold change and 1.185 fold change and 0.899 fold change
  fold change p-p38 vs Tubulin: 1.39 fold change and 0.6346 fold change and 1.266 fold change
  fold change p-p53 vs Tubulin: 0.5865 fold change and 1.299 fold change and 1.138 fold change
AGS cells [2]; Time 6 h
  fold change p-ERK vs Tubulin: 2.441 fold change and 1.161 fold change and 1.546 fold change
  fold change p-JNK vs Tubulin: 1.257 fold change and 1.756 fold change and 0.7623 fold change
  fold change p-p38 vs Tubulin: 0.9545 fold change and 1.021 fold change and 0.8104 fold change
  fold change p-p53 vs Tubulin: 1.308 fold change and 1.189 fold change and 1.275 fold change
AGS cells [2]; Time 24 h
  fold change p-ERK vs Tubulin: 2.387 fold change and 2.45 fold change and 1.9989 fold change
  fold change p-JNK vs Tubulin: 1.302 fold change and 2.33 fold change and 0.8503 fold change
  fold change p-p38 vs Tubulin: 0.6414 fold change and 1.823 fold change and 1.149 fold change
  fold change p-p53 vs Tubulin: 3.183 fold change and 2.955 fold change and 1.906 fold change
AGS cells [2]; time 1 h
  fold change BAX vs Tubulin: 1.198 fold change and 1.173 fold change and 0.877 fold change
  fold change MCL1 vs Tubulin: 1.103 fold change and 0.99 fold change and 0.761 fold change
AGS cells [2]; time 3 h
  fold change BAX vs Tubulin: 0.789 fold change and 1.149 fold change and 1.345 fold change
  fold change MCL1 vs Tubulin: 0.575 fold change and 0.967 fold change and 0.513 fold change
AGS cells [2]; time 6 h
  fold change BAX vs Tubulin: 1.098 fold change and 1.54 fold change and 2.188 fold change
  fold change BID full length vs Tubulin: 0.649 fold change and 1.175 fold change and 0.953 fold change
  fold change MCL1 vs Tubulin: 1.101 fold change and 0.938 fold change and 0.603 fold change
AGS cells [2]; time 24 h
  fold change BID full length vs Tubulin: 1.562 fold change and 1.807 fold change and 1.427 fold change
  fold change MCL1 vs Tubulin: 0.943 fold change and 0.926 fold change and 0.668 fold change
PANC1 cells; PANC1, IC50, 1, 3, 6 or 24 h
  phosphorylation of CHK1/2 (DDR pathway, western blot): induced the phosphorylation
PANC1 cells; PANC1, time 1 h, Fig. S3B
  fold change BAX vs Tubulin: 1.6915 fold change and 0.9781 fold change and 1.332 fold change
  fold change MCL1 vs Tubulin: 0.9288 fold change and 1.014 fold change and 1.02 fold change
PANC1 cells; PANC1, time 3 h, Fig. S3B
  fold change BAX vs Tubulin: 1.86 fold change and 1.118 fold change and 1.518 fold change
  fold change MCL1 vs Tubulin: 1.904 fold change and 2.322 fold change and 1.672 fold change
PANC1 cells; PANC1, time 6 h, Fig. S3B
  fold change BAX vs Tubulin: 1.424 fold change and 1.3785 fold change and 1.29 fold change
  fold change MCL1 vs Tubulin: 1.358 fold change and 1.631 fold change and 1.901 fold change
PANC1 cells; PANC1, time 24 h, Fig. S3B
  fold change BAX vs Tubulin: 1.469 fold change and 1.617 fold change and 1.511 fold change
  fold change BID full length vs Tubulin: 1.745 fold change and 2.178 fold change and 1.991 fold change
  fold change MCL1 vs Tubulin: 1.279 fold change and 1.508 fold change and 1.299 fold change
PANC1 cells; Time 1 h
  fold change p-ERK vs Tubulin: 1.164 fold change and 1.13 fold change and 1.21 fold change
  fold change p-JNK vs Tubulin: 1.373 fold change and 1.201 fold change and 1.17 fold change
  fold change p-p38 vs Tubulin: 1.546 fold change and 1.183 fold change and 0.9863 fold change
  fold change p-p53 vs Tubulin: 1.04 fold change and 1.08 fold change and 0.83 fold change
PANC1 cells; Time 3 h
  fold change p-ERK vs Tubulin: 0.6555 fold change and 1.708 fold change and 1.33 fold change
  fold change p-p38 vs Tubulin: 0.9361 fold change and 0.959 fold change and 0.6722 fold change
  fold change p-p53 vs Tubulin: 1.501 fold change and 1.122 fold change and 1.403 fold change
PANC1 cells; Time 6 h
  fold change p-ERK vs Tubulin: 0.4691 fold change and 2.127 fold change and 1.29 fold change
  fold change p-JNK vs Tubulin: 0.7555 fold change and 0.4269 fold change and 0.7284 fold change
